“And” between values parts separate entries of the source, which are not always exact repeats. Equal values may be shown once.
Tests used:
[1] = Intestinal absorption, single-pass intestinal perfusion; type: in vivo, rats
Experimental: In order to determine intestinal absorption (%) of a naphthoquinone-based compound, a single-pass intestinal perfusion technique was carried out in internal organs of rats, including jejunum, ileum and large intestine. The steady-state intestinal effective permeability (Peff) can be expressed according to the following equation. Peff=[−Qin·ln (Cout/Cin)]/A Peff: Steady-state intestinal effective permeability (cm/s) Qin: Perfusion flow rate (0.4 mL/min) Cin, Cout: Inlet and fluid-transport-corrected outlet solution concentrations A: Mass transfer surface area within intestinal segment (2πrL), r, L: Radius and length of intestinal segment The radius (r) and length (L) of the jejunum, ileum and large intestine used in experiments are as follows: (r: jejunum, 0.21 cm; ileum, 0.22 cm; large intestine, 0.23 cm, and L: 10 cm) The steady-state was confirmed by the ratio of the outlet to inlet concentrations (Cout/Cin) versus time. The steady-state is established when the Cout/Cin ratio of the naphthoquinone-based compound is maintained at a constant value (n=3, error bars with respect to S.D.). Residual amounts of the naphthoquinone-based compound in the above three intestinal organs were measured at different time points. The outlet steady-state concentration of the compound under perfusion was calculated. The results thus obtained are given in Table 4 and FIG. 2, respectively. The effective permeability was measured at 4 points of each intestinal tissue.

[2] = cited from earlier work
[3] = Determination of partition coefficients (octanol / phosphate buffer pH 7.4); type: physicochemical; details: sample 200 μg/mL; octanol/water; replicates 1-3
Experimental: Octanol and phosphate buffer (pH 7.4) were saturated with a counter-solvent for 24 hours or more. A given amount of a naphthoquinone-based compound (compound 1 of Table 1 below) was dissolved in the thus-saturated octanol, mixed with triple-distilled water and stirred using a magnetic stirrer at 200 rpm for 13 hours or more. Samples were taken, filtered through a 0.45 μm RC Membrane filter and diluted with methanol. The diluted sample materials were analyzed by HPLC. A partition coefficient versus an amount of the compound 1 was determined.

With `CC1(C)CCC2=C(O1)c1ccccc1C(=O)C2=O` [naphthoquinone-based compound] the Peff ([1]; Duodenum) was 0.79 ± 0.33 × 10^−5 (cm/s), the Peff ([1]; Ileum) was 5.15 ± 1.49 × 10^−5 (cm/s) and the Peff ([1]; Jejunum) was 2.37 ± 1.17 × 10^−5 (cm/s). For the same compound, the Peff ([1]; Large intestine) was 7.82 ± 0.93 × 10^−5 (cm/s).
In the case of `C[C@H]1COC2=C1C(=O)C(=O)c1c2ccc2c1CCCC2(C)C` [cryptotanshinone], the “absorption rate via oral administration” value [2] is listed as 2.05%.
For `CC1(C)CCC2=C(O1)c1ccccc1C(=O)C2=O` [Compound 1], the “Partition Coefficient” value [3] was 2.40 and 2.20.

Reference: patent publication US20100239685A1, “COMPOUND FOR TREATMENT OR PREVENTION OF PROSTATE-RELATED DISEASES AND PHARMACEUTICAL COMPOSITION OF COLON DELIVERY SYSTEM CONTAINING THE SAME” (priority 2006, published 2010)
